Measured values published in a melting point compilation (Tetko et al.; mined from patent text by program, amines drawn as free bases though some values may be those of a salt).

Compound | melting point [°C]
O=C(O)c1ccc(-c2nc(NCc3ccc4c(c3)OCO4)c3cc([N+](=O)[O-])sc3n2)cc1 | 172
CN1C2CCCC1CN(c1ccc(C#Cc3ccc(N)cc3)cc1)C2 | 191
C=CCN1CC(=O)N2CCC[C@H]2C1=O | 106 to 109
Cc1ccc(COCc2c(C(C)C)cc(C(C)C)c(C(C)O)c2-c2ccc(F)cc2)cc1 (single isomer, unassigned; (+)) | 84 to 86
CCOC(=O)C1C(=C=S)NCC1CCc1ccc(C(=O)O)cc1 (configuration not stated) | 145 to 148
CS(=O)(=O)N1CCN2C(=O)N(c3ccc(C#N)c4ccccc34)C(=O)C2C1 (configuration not stated) | 207 to 216
CC(=O)c1cccc2c(=O)c(C)c(-c3ccccc3)oc12 | 159 to 161
Cc1cc(-c2cc(C(F)(F)F)n3ncc(-c4ccnc(CO)c4)c3n2)ccc1Cl | 220
CON=C(C(=O)OC)c1cccc(OC)c1 | 66 to 68
COc1cc(C(=O)N(C)CC(CCN2CCC(C(=O)c3nc4ccccc4n3Cc3ccccn3)CC2)c2ccc(F)cc2)cc(OC)c1OC (configuration not stated) | 30 to 35
Cc1c(C)c2c(c(C)c1O)CCC(C)(COc1ccc([N+](=O)[O-])cc1)O2 (configuration not stated) | 114 to 116
O=C1N=C(N2CCCCCC2)SC1=Cc1cccc(-c2ccc(O)c(C34CC5CC(CC(C5)C3)C4)c2)c1 | 321 to 324
CCN(CC)CCSC1=C(C#N)C(c2ccccn2)(c2ccccn2)C(=O)N1 | 135 to 136
N#Cc1ccc(-c2cccc(C=O)n2)cc1 | 158 to 159
CC1(c2cn(-c3c(Cl)cc(C(F)(F)F)cc3Cl)nc2C#N)CC1 | 138 to 139
COCOc1ccc(/C=C/C(=O)/C=C/c2ccc(OCOC)c(OCOC)c2)cc1OCOC | 86 to 88
Cc1ncc(CO)c(CN(C)C)c1O | 146 to 151
COc1ccc(Cn2c3c(c4cc(F)cc(F)c42)CCCC3CC(=O)O)cc1 (configuration not stated) | 149 to 151
COc1ccc(-c2c3ccccc3cc3sc4ccccc4c23)cc1C#N | 230 to 232

Compound | melting point [°C]
CCCCCCCCCCOc1cc(OCCCOc2ccc(O)cc2)cc(C(=O)O)c1 | 106 to 109
OCCCSc1csc2ccccc12 | 154 to 155
Oc1ccc(-c2nc3cccc(O)c3[nH]2)cc1C12CC3CC(CC(C3)C1)C2 | 307 to 309
CCOc1cc(-c2ccc(C(F)(F)F)cc2)nc(-c2cccc(C(F)(F)F)c2)c1 | 95.1
CCN(CC)C(=S)SCc1ccccc1CSC(=S)N(CC)CC | 78 to 80
Nc1nc(/C(=N/OCC(=O)N2CCCCCC2)C(=O)O)cs1 | 178 to 179
COc1ccc(C(=CC(=O)N2CCOCC2)c2ccc([N+](=O)[O-])cc2)cc1OC | 149 to 163
CC1CCC(C2=C(O)C(=O)c3ccccc3C2=O)CC1 (configuration not stated) | 101
COc1cc(-n2nc(C#N)cc2-c2ccc(S(C)(=O)=O)cc2)ccc1F | 169 to 171
COc1cccc2c1nc(C(F)F)n2-c1nc(N2CCOCC2)nc(N(C)c2cncnc2)n1 | 214 to 217
COC(=O)C12C3C4(C(=O)OC)C1C1(C(=O)OC)C2C3(C(=O)OC)C41Cl (configuration not stated) | 178 to 180
O=c1[nH]c2cc(Cl)ccc2c(=O)n1-c1ccccc1 | > 300
CC(C)CC1(C(CCN2C(=O)c3ccc(N)cc3C2=O)C(=O)NO)CCN(CCc2ccccc2)C1=O (configuration not stated) | 187 to 188
CCNS(=O)(=O)c1ccc(C(O)c2ccc3c(c2)C(C)(C)CCC3(C)C)cc1 (configuration not stated) | 175
COc1cccc2c1Oc1ccc(C(=O)OC(C)C)cc1NC2 | 110
N#Cc1cc2c(Oc3ccc(Cl)cc3)cncc2s1 | 140 to 142
COc1cccc([C@H]2O[C@H](CC(=O)N[C@H](C)C(=O)OC(C)(C)C)C(=O)N(CC(C)(C)C)c3ccc(Cl)cc32)c1OC | 127 to 128
O=C(NC1C(=O)N(CC2C3CC4CC(C3)CC2C4)c2ccccc2N(c2ccccc2)C1=O)Oc1ccccc1 (configuration not stated) | 167 to 168
